# Assay results published in publication PMC10377753, “Pharmacokinetic and pharmacodynamic properties of polymyxin B in Escherichia coli and Klebsiella pneumoniae murine infection models” (Journal of Antimicrobial Chemotherapy, 2023).
# Counter-ions that a name gives are not always drawn. Bridge positions count the residues as written; N and C are the ends. Square brackets hold non-standard residues; d marks the D form. Peptide text beside a SMILES is read from it. * marks the point of attachment. X1 = CC[C@H](C)CCCCC(=O)*; Dab = NCC[C@H](N)C(=O)O
# Legend:
# [1] = Epithelial lining fluid (ELF) concentration from BAL, urea correction; assay type: in vivo; settings: lung-infected mice
# Experimental: Bronchoalveolar lavage (BAL) was performed immediately after blood collection. The trachea was exposed by a ventral vertical incision in the neck for insertion of a cannula. Lungs were instilled two times with 1 mL of sterile saline, and the fluid was recovered immediately. The recovered lavages were pooled, directly placed on ice, and subsequently stored at −80°C.
# By taking BAL fluid samples and a plasma sample at the same timepoint, the concentrations in ELF could be determined. The ratio of the urea concentration in BAL to the concentration in plasma was used to determine the ELF concentration.[17] In short, polymyxin B concentration in ELF was calculated by multiplying the polymyxin B concentration in the BAL fluid by the ratio of the urea concentration in the plasma and BAL fluid: [polymyxin B]ELF = [polymyxin B]BAL × ([urea]Plasma/[urea]BAL). Urea concentrations were measured with an enzymatic assay (QuantiChrom urea assay kit; DIUR-100; BioAssay Systems, Hayward, CA, USA).
# Polymyxin B concentrations in plasma, BAL and ultrafiltrates were determined by a validated LC-MS/MS method,[18] with a lower limit of quantification (LOQ) of 0.2 mg/L for plasma and 0.05 mg/L for BAL fluid and ultrafiltrates. […] The residues were dissolved in 0.1 mL of 0.1% formic acid in water and analysed by LC-MS/MS. […] Polymyxin B was analysed on an XBridge C18 column (5 µm, 2.1 × 150 mm; Waters). […]
# E. coli isolates = test: Dose-response study, thigh infection model, summary over E. coli isolates; assay type: in vivo, Escherichia coli
# Experimental: Experiments were carried out in the Erasmus Laboratory Animal Science Centre in Rotterdam, The Netherlands in accordance with the EU Animal Directive 2010/63/EU 2010 directive[14] (licence number AVD101002016702) as described before,[15] with approval of the institutional Animal Welfare Body. Outbred female CD-1 mice obtained from Charles River Germany, weighing 20–25 g, 7–8 weeks old, were used in the experiments. The mice were housed under standard conditions with drink and feed supplied ad libitum.
# Mice were rendered neutropenic by intraperitoneal injection of cyclophosphamide of 150 and 100 mg/kg, 4 days and 1 day before infection, respectively. On the day of infection, an overnight culture of the bacteria was diluted in fresh CAMHB and incubated at 37°C for 1 or 2 h depending on the growth rate of the strain. After incubation the inoculum was diluted in CAMHB or saline for the thigh and lung infection model, respectively, in order to obtain approximately 5.0 × 10^7 cfu/mL. Mice were then infected intramuscularly in each thigh (thigh infection model) or intranasally under isoflurane anaesthesia (lung infection model), with 0.05 mL of inoculum containing approximately 2.5 × 10^6 bacteria. Analgesia was given in the form of buprenorphine directly after infection, every 12 h.
# For dose–response studies, a 6 hourly dosing regimen of 1–32 mg/kg was studied in the thigh infection model. Mice were infected with E. coli […], 15, 51 or 71 or K. pneumoniae ATCC 43816, 17, 58 or 74.
# Animals were humanely euthanized 24 h (t = 24 h) after the first dose, unless the welfare of the animals necessitated earlier termination, following animal welfare regulations. Excised thighs were transferred to a pre-cooled 14 mL polypropylene tube containing 2 mL of PBS and were homogenized using a T25 ULTRA-TURRAX (IKA-Werke GmbH & Co, Staufen, Germany). A 10-fold dilution series was prepared and 3 × 10 μL was plated per dilution. The following day, colonies were counted and the number of cfu per thigh was calculated.
# The drug effect was determined by the difference between the log10 cfu values at t = 0 h (mean value of two mice) and t = 24 h (value of individual mice) expressed as Δlog10 cfu. The fAUC/MIC, fCmax/MIC and %fT>MIC were determined based on the simulated time–concentration profiles over 24 h as derived in MicLab 2.71 (MEDIMATICS, Maastricht, The Netherlands) using 200 points per dosing interval.
# A sigmoid maximum effect (Emax) model was fitted to the PK/PD index versus Δlog10 cfu data by non-linear regression, and static or a 1 log or 2 log kill effect were determined using GraphPad Prism 8.0 (GraphPad, Inc., San Diego, CA, USA). A two-tailed unpaired t-test was performed in GraphPad Prism 8.0 to determine if there was a significant difference in the fAUC/MIC targets correlating with a static or a 1 log or 2 log decline, between E. coli and K. pneumoniae isolates.
# gram-negative pathogens = settings: previous studies; cited from earlier work
# Experimental: To determine whether these targets are achieved in humans, the PTAs for the 200 mg q24h dose were calculated. It is clear that the degree of protein binding is essential herein and more clarity on the protein binding in human plasma is needed before an optimal dosing regimen can be recommended, since for a highly protein-bound drug a small error on the fu would yield important PTA differences.
# [2] = two E. coli isolates in which 1 log kill was found
smiles,measurement,setting,value
"CC[C@H](C)CCCCC(=O)N[C@@H](CCN)C(=O)N[C@H](C(=O)N[C@@H](CCN)C(=O)N[C@H]1CCNC(=O)[C@H]([C@@H](C)O)NC(=O)[C@H](CCN)NC(=O)[C@H](CCN)NC(=O)[C@H](CC(C)C)NC(=O)[C@@H](Cc2ccccc2)NC(=O)[C@H](CCN)NC1=O)[C@@H](C)O [polymyxin B, Polymyxin B sulphate salt] (X1-[Dab]T[Dab][Dab][Dab][dF]L[Dab][Dab]T; lactam 4-C)",Concentration in ELF,"[1]; 64 mg/kg s.c., BAL, urea correction, data not shown",Low levels
same,Concentration in ELF,"[1]; other doses (1, 4, 16 mg/kg s.c.), LOQ 0.05 mg/L for BAL fluid",below the LOQ
same,Isolates in which 1 log kill was found,"E. coli isolates; E. coli isolates, mouse thigh infection",2/4
same,"Target value of fAUC/MIC, static effect, average","E. coli isolates; average of four E. coli isolates, mouse thigh infection, q6h",64.3
same,"Target value of fAUC/MIC, static effect, median","E. coli isolates; median of four E. coli isolates, mouse thigh infection, q6h",63.5
same,"Target value of fAUC/MIC, static effect, range","E. coli isolates; range over four E. coli isolates, mouse thigh infection, q6h",27.5–102.6
same,"fAUC/MIC for 1 log kill, median",E. coli isolates; [2],50.6
same,"fAUC/MIC for 1 log kill, range",E. coli isolates; [2],46.8–54.5
same,MIC90,gram-negative pathogens,0.5 to 1 mg/L
